Reference: ChEMBL document CHEMBL5465560, “Selectivity Literature for EUbOPEN Chemogenomic Library” (2024)
Each block holds one compound with its values, some of them ahead of it.

Tests used:
Histamine H3 receptor = Histamine H3 receptor (Homo sapiens, UniProt Q9Y5N1); assay: Selectivity interaction (Eurofins CEREP Diversity Profile (receptors and ion channels)) EUB0000279b HRH3; conditions: at 10 µM
[1] = target: T1, Cyclin-dependent kinase 2 (Homo sapiens, UniProt P24941); conditions: at 10 µM
[2] = target: Mitogen-activated protein kinase 10 (Homo sapiens, UniProt P53779); conditions: at 10 µM
Sequence of Mitogen-activated protein kinase 10 (P53779 whole entry): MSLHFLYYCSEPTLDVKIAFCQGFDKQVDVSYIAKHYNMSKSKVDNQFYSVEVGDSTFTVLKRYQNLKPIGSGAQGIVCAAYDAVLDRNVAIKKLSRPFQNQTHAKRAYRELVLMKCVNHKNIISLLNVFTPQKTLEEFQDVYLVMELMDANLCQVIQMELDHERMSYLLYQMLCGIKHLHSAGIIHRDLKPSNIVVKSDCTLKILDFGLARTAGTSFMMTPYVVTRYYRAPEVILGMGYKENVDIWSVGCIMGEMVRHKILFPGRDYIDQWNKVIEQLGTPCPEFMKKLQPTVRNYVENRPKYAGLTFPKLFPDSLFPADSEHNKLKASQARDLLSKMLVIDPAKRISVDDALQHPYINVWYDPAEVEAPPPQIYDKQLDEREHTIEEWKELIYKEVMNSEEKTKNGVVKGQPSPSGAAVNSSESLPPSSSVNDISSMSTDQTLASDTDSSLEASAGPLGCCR

[3] = target: Serine/threonine-protein kinase Chk2 (Homo sapiens) (UniProt O96017); assay: Selectivity interaction (ActivX KiNativ screen (kinase selectivity in THP-1 cell lysates)) EUB0000639a CHEK2; type: subcellular; conditions: lysate, at 0.01 µM
Sequence of Serine/threonine-protein kinase Chk2 (Homo sapiens) (O96017 whole entry): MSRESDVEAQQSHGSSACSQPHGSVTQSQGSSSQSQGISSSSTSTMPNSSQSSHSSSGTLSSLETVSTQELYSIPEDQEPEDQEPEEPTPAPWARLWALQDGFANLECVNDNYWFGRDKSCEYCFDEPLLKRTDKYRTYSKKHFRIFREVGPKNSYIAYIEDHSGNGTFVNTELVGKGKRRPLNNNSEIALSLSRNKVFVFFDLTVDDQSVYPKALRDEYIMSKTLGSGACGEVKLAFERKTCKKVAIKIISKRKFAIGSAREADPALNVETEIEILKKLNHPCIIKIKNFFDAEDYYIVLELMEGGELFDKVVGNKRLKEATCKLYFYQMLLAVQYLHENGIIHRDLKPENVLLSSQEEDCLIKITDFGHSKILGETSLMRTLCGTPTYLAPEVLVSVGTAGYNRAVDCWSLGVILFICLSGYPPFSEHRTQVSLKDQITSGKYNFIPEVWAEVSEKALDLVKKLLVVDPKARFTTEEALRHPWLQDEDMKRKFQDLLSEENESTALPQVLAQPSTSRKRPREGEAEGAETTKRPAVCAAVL

[4] = target: Tyrosine-protein kinase CSK (Homo sapiens) (UniProt P41240); assay: Selectivity interaction (Ambit KINOMEscan and KiNATiv profiling in Jurkat cells) EUB0000090b CSK; type: cell-based; conditions: at 1 µM
Sequence of Tyrosine-protein kinase CSK (Homo sapiens) (P41240 2-450 limits assumed): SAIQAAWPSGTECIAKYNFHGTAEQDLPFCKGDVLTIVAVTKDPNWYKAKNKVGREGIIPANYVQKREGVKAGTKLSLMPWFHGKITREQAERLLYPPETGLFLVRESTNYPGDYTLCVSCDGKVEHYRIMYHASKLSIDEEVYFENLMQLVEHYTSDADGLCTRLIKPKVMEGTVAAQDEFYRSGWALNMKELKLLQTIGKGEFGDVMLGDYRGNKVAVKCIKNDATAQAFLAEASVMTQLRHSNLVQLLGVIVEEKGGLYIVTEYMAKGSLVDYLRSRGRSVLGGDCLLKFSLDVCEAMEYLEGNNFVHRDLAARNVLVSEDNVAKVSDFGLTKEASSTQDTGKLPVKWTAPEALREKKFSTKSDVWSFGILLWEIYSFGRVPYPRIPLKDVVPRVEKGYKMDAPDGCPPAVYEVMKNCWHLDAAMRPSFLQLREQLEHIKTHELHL

[5] = target: T2, Serine/threonine-protein kinase DCLK2 (Homo sapiens) (UniProt Q8N568); assay: Selectivity interaction (Ambit KINOMEscan and KiNATiv profiling in Jurkat cells) EUB0000090b DCLK2; type: cell-based; conditions: at 1 µM
T2 sequence (whole entry): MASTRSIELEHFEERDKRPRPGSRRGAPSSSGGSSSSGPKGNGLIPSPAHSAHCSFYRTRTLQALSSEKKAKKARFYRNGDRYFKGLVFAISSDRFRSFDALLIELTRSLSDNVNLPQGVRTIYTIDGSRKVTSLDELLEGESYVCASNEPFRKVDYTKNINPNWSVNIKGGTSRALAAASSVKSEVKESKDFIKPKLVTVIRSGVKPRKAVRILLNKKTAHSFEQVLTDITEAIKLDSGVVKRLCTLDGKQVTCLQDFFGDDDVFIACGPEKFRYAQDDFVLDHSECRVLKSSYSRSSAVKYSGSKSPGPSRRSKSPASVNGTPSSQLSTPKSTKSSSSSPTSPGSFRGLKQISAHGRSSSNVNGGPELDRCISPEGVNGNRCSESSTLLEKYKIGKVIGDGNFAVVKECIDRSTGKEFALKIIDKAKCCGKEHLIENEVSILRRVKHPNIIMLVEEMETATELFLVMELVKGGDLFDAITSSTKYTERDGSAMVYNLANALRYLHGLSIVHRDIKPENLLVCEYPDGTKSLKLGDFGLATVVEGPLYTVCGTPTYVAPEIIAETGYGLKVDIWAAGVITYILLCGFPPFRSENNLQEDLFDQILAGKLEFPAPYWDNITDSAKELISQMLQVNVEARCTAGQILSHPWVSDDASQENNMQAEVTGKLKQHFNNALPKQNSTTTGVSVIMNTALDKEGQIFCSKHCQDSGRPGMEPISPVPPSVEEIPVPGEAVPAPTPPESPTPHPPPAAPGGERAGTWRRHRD

[6] = target: T3, TGF-beta receptor type-1 (Homo sapiens) (UniProt P36897); assay: Selectivity interaction (KinomeScan (DiscoverX)) EUB0001079a TGFBR1; conditions: at 1 µM
T3 sequence (whole entry): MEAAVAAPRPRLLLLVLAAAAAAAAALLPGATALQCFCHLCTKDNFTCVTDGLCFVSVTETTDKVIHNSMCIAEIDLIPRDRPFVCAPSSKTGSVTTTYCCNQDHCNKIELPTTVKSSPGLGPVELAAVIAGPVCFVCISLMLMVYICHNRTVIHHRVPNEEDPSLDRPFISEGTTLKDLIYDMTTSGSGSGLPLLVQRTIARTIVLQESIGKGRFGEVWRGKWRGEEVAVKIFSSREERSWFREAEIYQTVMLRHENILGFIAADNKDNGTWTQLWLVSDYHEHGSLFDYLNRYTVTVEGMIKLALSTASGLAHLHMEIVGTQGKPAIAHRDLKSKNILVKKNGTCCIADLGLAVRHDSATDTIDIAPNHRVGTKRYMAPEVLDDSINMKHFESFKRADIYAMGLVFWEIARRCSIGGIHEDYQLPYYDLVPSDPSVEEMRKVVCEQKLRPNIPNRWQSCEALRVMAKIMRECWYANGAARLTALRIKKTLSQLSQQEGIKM

[7] = target: T1, Cyclin-dependent kinase 2; conditions: at 10 µM; remark: listed apart in the source
[8] = target: T4, NUAK family SNF1-like kinase 1 (Homo sapiens) (UniProt O60285); conditions: at 10 µM
T4 sequence (whole entry): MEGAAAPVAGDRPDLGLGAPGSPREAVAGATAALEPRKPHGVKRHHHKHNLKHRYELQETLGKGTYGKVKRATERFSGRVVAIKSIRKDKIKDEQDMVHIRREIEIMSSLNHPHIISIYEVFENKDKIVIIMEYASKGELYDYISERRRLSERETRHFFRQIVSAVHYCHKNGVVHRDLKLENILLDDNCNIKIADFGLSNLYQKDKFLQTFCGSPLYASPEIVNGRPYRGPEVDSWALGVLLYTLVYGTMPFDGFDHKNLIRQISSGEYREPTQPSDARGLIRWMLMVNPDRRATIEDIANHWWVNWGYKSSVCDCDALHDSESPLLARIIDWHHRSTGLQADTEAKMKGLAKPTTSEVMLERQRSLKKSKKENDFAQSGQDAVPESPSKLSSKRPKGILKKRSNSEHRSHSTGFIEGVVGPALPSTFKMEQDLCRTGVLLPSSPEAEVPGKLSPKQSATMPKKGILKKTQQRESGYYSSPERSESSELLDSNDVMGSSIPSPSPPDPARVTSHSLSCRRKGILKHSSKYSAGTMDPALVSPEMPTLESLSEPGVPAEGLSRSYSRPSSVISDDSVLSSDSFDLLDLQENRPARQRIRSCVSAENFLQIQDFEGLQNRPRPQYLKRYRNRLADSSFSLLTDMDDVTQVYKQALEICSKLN

[9] = target: T5, Rhodopsin kinase GRK7 (Homo sapiens) (UniProt Q8WTQ7); conditions: at 10 µM
T5 sequence (whole entry): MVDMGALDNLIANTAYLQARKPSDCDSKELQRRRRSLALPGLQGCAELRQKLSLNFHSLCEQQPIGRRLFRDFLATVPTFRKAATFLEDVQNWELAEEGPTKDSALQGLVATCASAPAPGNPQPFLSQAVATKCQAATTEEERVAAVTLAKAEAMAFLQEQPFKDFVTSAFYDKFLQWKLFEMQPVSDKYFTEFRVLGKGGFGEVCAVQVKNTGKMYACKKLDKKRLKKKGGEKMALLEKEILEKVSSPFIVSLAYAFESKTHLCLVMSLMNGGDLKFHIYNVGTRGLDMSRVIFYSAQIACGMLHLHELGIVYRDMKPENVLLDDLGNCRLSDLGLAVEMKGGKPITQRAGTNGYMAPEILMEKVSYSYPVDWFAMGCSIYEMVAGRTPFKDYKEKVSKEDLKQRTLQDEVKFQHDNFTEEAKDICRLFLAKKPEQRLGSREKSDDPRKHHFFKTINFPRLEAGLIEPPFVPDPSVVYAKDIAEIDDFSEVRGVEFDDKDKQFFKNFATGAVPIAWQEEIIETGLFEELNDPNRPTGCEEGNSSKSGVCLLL

Sequence of Histamine H3 receptor (Q9Y5N1 whole entry): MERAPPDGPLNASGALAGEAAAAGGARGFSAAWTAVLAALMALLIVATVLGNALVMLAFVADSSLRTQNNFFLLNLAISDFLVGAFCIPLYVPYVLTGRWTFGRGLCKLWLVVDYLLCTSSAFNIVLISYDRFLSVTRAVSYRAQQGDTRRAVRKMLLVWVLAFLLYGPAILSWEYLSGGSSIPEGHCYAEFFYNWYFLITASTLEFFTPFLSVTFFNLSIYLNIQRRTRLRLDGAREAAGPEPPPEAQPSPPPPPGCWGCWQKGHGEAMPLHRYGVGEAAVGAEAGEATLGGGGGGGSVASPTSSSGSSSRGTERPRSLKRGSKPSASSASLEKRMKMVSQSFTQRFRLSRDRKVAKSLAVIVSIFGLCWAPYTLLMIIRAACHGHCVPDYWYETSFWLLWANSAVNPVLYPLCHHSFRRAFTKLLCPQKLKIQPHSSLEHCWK

- % of control (Histamine H3 receptor): 105%
Structure (SMILES): CC(=O)c1cc(-c2ccccc2OCC2CC2)c2ncccn12

- % of control [1]: 100%
- % of control [2]: 100%
Structure (SMILES): CCN(CC)CCCCNc1ncc2cc(-c3cc(OC)cc(OC)c3)c(NC(=O)NC(C)(C)C)nc2n1

- % of inhibition [3]: -4.8%
Structure (SMILES): CC[C@@H]1[C@H](F)C(=O)N[C@@H]1COc1nccc2cc(C(N)=O)c(OC)cc12 [ZIMLOVISERTIB]

Structure (SMILES): CN(C)C/C=C/C(=O)Nc1ccc(C(=O)N2CCCC(Nc3ncc(Cl)c(-c4c[nH]c5ccccc45)n3)C2)cc1 (stereo not given)
- % of control [4]: 95%
- % of control [5]: 78%

Structure (SMILES): Nc1cnc(N2CCc3cc(S(=O)(=O)Nc4c(F)cc(Cl)cc4F)cc(N4CCCC4=O)c32)nc1 [TP-020n]
- % of control [6]: 100%

Structure (SMILES): Cc1cc([C@@H](C)Nc2ccccc2C(=O)O)c2nc(N3CCOCC3)cc(=O)n2c1 [AZD-6482]
- % of control [7]: 93%
- % of control [8]: 100%
- % of control [9]: 57%
